# Results from US11051538B2, “Plated flavor powders” (FIRMENICH SA, priority 2013, dated 2021).
# Assay: Transfer of volatiles via headspace from MCT flavor composition to PG plated onto MCC, cyclohexane extraction, GC/MS
# Type: physicochemical
# Settings: for (conc in PG/conc in initial oil)*100: affinity for propylene glycol versus MCT oil or air; for (conc in PG/conc in initial oil)*100 / Avg conc in the PG: 6 days room temperature; for Avg conc in the PG / Avg conc in powder: powder 20% PG on 80% MCC; for Avg conc in powder: 6 days room temperature in closed container with MCT flavor composition, average of 2 extractions
# Experimental: A flavor composition formulated based on a medium chain triglyceride oil (MCT, solvent A) was filled into a open beaker, and was then placed inside a closed glass container containing a powder consisting of 20% propylene glycol (PG, solvent B) plated onto 80% of microcrystalline cellulose (MCC; purchased from Sigma Aldrich). Then the system was stored in the lab at room temperature. After 6 days, a small sample of powder was removed, an extraction experiment was performed and the extract was analyzed by GC/MS. Extraction solvent: cyclohexane Internal standard: Methyloctanoate (a 6.67 mg/ml solution was prepared by dissolution in cyclohexane) 2 extractions were performed to check the reproducibility.
Molecule,(conc in PG/conc in initial oil)*100,Avg conc in the PG [ppm],Avg conc in powder [ppm]
"CCc1ncc(C)nc1C [2-ethyl-3,5-dimethylpirazine]",12.7,25.4,6
Decenal,0.3,37.8,9
Dienal C10,1.9,467.4,117
CCC(C)C=O (stereo not drawn) [2-methyl butanal],6.7,1615.4,404
CC(C)CC=O [isovalerianic aldehyde],9.1,1091.5,273
CC(=O)C(C)O (stereo not drawn) [acetylmethylcarbinol],3.9,156.9,39
CCc1nccnc1C [2-ethyl-3-methylpyrazine],39.9,799.0,200
Dienal C11,0.5,40.4,10
CSCCC=O [3-(methylthio)propanal],2.8,113.5,28
